In one assay the target is T1, MARS2 (Mus musculus, UniProt Q499X9).
T1 construct: Flag-tagged, cDNA NM_175439.3
T1 sequence (Q499X9 47-586): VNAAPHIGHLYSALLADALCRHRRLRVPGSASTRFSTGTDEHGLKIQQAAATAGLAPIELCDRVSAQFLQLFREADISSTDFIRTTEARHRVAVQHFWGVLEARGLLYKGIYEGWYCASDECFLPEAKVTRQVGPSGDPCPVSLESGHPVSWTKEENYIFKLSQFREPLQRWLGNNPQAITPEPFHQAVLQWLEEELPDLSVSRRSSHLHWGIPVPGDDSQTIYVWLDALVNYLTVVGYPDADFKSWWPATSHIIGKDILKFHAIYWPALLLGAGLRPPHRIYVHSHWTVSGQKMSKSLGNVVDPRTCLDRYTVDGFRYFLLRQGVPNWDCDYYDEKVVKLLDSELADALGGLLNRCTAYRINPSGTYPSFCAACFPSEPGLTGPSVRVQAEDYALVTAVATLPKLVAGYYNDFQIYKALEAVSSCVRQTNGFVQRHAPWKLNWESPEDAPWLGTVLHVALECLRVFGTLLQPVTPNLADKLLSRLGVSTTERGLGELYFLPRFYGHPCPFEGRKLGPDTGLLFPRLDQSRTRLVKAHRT
Kind of assay: in vitro HTL production from Hcy ([…]), thin layer chromatography. Type of assay: biochemical.

Assay [1] deals with T2, MARS (methionyl-tRNA synthetase) (Homo sapiens, UniProt P56192).
T2 construct: gene MARS1; Flag-tagged, cDNA NM_004990.3
T2 sequence (P56192 1-900): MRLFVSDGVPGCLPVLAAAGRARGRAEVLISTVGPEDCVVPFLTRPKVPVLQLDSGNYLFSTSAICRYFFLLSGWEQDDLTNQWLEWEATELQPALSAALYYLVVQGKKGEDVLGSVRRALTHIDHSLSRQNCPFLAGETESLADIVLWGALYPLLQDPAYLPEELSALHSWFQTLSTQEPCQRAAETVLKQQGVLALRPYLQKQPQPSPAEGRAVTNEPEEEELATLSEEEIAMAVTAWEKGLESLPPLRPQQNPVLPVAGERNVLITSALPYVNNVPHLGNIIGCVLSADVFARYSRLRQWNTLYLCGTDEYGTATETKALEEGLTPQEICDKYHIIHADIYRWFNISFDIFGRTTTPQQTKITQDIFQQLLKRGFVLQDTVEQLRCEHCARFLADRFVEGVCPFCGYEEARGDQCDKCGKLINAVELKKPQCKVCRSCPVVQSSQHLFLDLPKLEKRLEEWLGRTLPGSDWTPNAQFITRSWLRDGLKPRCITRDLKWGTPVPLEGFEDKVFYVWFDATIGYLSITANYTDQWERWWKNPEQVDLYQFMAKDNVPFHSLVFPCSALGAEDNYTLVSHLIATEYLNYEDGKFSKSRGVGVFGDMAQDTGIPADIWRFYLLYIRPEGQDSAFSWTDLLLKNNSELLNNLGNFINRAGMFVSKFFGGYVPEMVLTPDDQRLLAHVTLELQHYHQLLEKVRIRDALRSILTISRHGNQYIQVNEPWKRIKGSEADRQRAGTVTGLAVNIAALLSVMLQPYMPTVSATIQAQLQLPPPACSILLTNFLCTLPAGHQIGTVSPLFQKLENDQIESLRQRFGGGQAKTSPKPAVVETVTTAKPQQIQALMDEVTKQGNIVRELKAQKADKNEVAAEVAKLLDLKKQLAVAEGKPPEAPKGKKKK
The assay is described as above. Type of assay: biochemical.

For `NC(=O)CSCCC(N)C(=O)O` (racemic) [compound 5, AHT], the values for the IC50 (at MARS2; in assay [1]) were 40 µM and 36 µM, respectively.

The values are drawn from paper PMC7059139, “Inhibiting MARSs reduces hyperhomocysteinemia‐associated neural tube and congenital heart defects” (EMBO Molecular Medicine, 2020).
